Data set [1] concerns Primary cortical neurons. In words: Cell death due to trophic factor withdrawal. To be noted: HCQ 0.25, 2.5 and 25 μM. The class given is cell-based, mouse. Here is the method:
Cell death due to trophic factor withdrawal: Primary cortical neurons from E18 C57Bl/6 mice were prepared as previously described. On the day of preparation (DIV1), cortical neurons were seeded on poly-D-lysine pre-coated 96-well plates at a density of 3×10^4 cells per well. Every 4-6 days, a half medium exchange using full medium (Neurobasal, 2% B-27, 0.5 mM glutamine, 1% Penicillin-Streptomycin) was carried out. On DIV8, a full medium exchange to B-27 free medium (Neurobasal, 0.5 mM glutamine, 1% Penicillin-Streptomycin) was performed and HCQ (0.25 μM, 2.5 μM and 25 μM) was applied thereafter. […]
YO-PRO™-1 (Invitrogen; Y3603) assay was carried out to detect apoptotic cells in combination with Propidium iodide (PI; P4864 Sigma Aldrich) staining for necrotic cells. […] Plate was measured at the multimode-reader (Cytation 5, BioTek).
MTT solution was added to each well in a final concentration of 0.5 mg/mL. […] Optical density was measured with a Cytation 5 (Biotek) multimode reader at wavelength 570 nm. Values were calculated as percent of control values (vehicle control or lesion control).
The Lactate dehydrogenase (LDH) toxicity assay was carried out on the supernatants collected after treatment using the Cytotoxicity Detection Kit (Roche Diagnostics, Cat. No: 11 644 793 001). […] Absorbance was measured at 492 nm and 620 nm as reference wavelength with a Cytation 5 (Biotek) multimode reader. […]

Data set [2] relates to Primary hippocampal neurons. The data set can be described thus: Neurite outgrowth and neurogenesis. It is filed as cell-based, mouse. To be noted: HCQ 25, 2.5 or 0.25 μM. As for the experimental part:
Neurite outgrowth and neurogenesis: Primary hippocampal neurons were prepared from E18.5 timed pregnant C57BL/6JRccHsd mice as previously described. Cells were seeded in poly-D-lysine pre-coated 96-well plates at a density of 2.6×10^4 cells/well in (Neurobasal, 2% B-27, 0.5 mM glutamine, 25 μM glutamate, 1% Penicillin-Streptomycin). Directly on DIV1 HCQ (TargetMol, T0951) at 25 μM, 2.5 μM or 0.25 μM concentrations or vehicle control was applied. On DIV2 10 μM Bromodeoxyuridine (BrdU; B5002 Sigma Aldrich) was added and cells were fixed after additional 24 h. Cells were permeabilized with 0.1% Triton-X and incubated with primary Beta Tubulin Isotype III (T8660, Sigma Aldrich) and BrdU antibodies (MAS250c, AHrlan-Sera Lab) overnight at 4° C. Afterwards cells were washed two times with PBS and incubated with fluorescently labeled secondary antibodies and DAPI for 1.5 hour at RT in the darkness. Cells were rinsed three times with PBS imaged with the Cytation 5 Multimode reader (BioTek) at 10× magnification (6 images per well). BrdU positive cells were counted as marker for neurogenesis and Beta Tubulin Isotype III signal was used for macro-based quantification of neurite outgrowth.

Data set [3] relates to microglia isolated from 5xFAD mice. In words: LPS-induced neuroinflammation on MACS isolated 5xFAD microglia. The class given is cell-based, mouse. Here is the method: MACS microglia isolation and cultivation: Adult microglia were isolated from 9 months old 5xFAD mice via magnetic cell sorting (MACS). The mice were terminally anesthetized by i.p. injection of Pentobarbital (600 mg/kg, dosing 10 μL/g body weight) and brains were transcardially perfused with DPBS. Brains were removed, the brainstem discarded and the remaining brain minced for cell dissociation. Cell dissociation was performed using Miltenyi Adult Brain Dissociation Kit (Miltenyi, 130-107-677). MACS cell separation was performed using CD11b (Microglia) MicroBeads, mouse (Miltenyi, 130-093-634) and MS columns on OctoMACS™ cell separator (Miltenyi). Isolated microglia were seeded onto 0.01% PLL coated plates at a density of 10.000 cells per well in 384 well plate in DMEM containing 10% FBS,1% penicillin/streptomycin, and 2 mM L-glutamine.
LPS-induced neuroinflammation on MACS isolated 5xFAD microglia: On DIV7 HCQ at 0.25 μM, 2.5 μM and 25 μM was applied 1 hour before LPS stimulation (Sigma-Aldrich; L6529; 1 mg/ml stock in ddH2O, final concentration in well: 50 ng/ml (dilutions in medium)). Cells treated with vehicle, cells treated with LPS alone, as well as cells treated with LPS plus reference item (dexamethasone 10 μM, Sigma D4902) served as controls. After 24 h of stimulation, cell supernatants were collected for the cytokine measurement (V-PLEX Proinflammatory Panel 1 Mouse Kit, K15048D, Mesoscale).

The conditions of data set [4]: macaques; cited from earlier work.
Data set [5] has as its system iPSCs. In words: LPS induced neuroinflammation (iPSCs). It is filed as cell-based. The conditions noted are these: posterior probability of a protective effect. Here is the method:
Cell-based assays: For each combination of drugs and assay, the posterior probability P(Hi|data) of protective, neutral, and adverse drug effect (formal hypotheses H1, H0, H2, respectively) were evaluated. Dose-response relationships (x-y data) were modeled with a Bayesian nonlinear regression model:
and Bayesian estimation of the posterior density of the fold change was performed using default settings of the Markov chain Monte Carlo samples implemented by the PyMC python library. For efficient sample, each bioactivity data set was standardized such that […] corresponded to one standard deviation. Diagnostic criteria (posterior sample of fitted curves, effective sample sizes, values of the r statistic, and Markov chain standard errors) were inspected for the fit and three poorly fitted data sets out of a total of 91 data sets were excluded.

As to `CCN(CCO)CCCC(C)Nc1ccnc2cc(Cl)ccc12` (centres unmarked) [HCQ, hydroxychloroquine], the “cell death in response to trophic factor withdrawal” value in data set [1] is given as “No effects”. Also, the “neurite outgrowth and neurogenesis” value in data set [2] was “No effects”. Also, in data set [3], the “release of IL1-b” value is listed as “lowered”, the “release of IL-10” value is “lowered” and the “release of IL-12p70” value is “lowered”. Moreover, in data set [3] (HCQ 0.25-25 μM), the “release of IL6” value is “lowered”. The Kp brain/plasma in data set [4] is 21.99±0.11.
As to `C[C@H](CCC(=O)NCCS(=O)(=O)O)[C@H]1CC[C@H]2[C@@H]3[C@@H](O)C[C@@H]4C[C@H](O)CC[C@]4(C)[C@H]3CC[C@]12C` [TUDCA, tauroursodeoxycholic acid], the “effect in LPS induced neuroinflammation (iPSCs)” value in data set [5] is reported as “strongly protective”.
